Measurements from patent publication US20110207726A1, “Inhibitors of Human Cathepsin L, Cathepsin B, and Cathepsin S” (The Trustees of the University of Pennsylvania, priority 2008, published 2011).
Like-named read-outs stand apart in the source and are kept apart here.

How the values were obtained:
Assay type in all cases: biochemical
human liver cathepsin L = biological target: T1, human liver cathepsin L (Homo sapiens, UniProt P07711); test: Cathepsin L assay, IC50 determination
T1 construct: 8.7 ng/mL human liver cathepsin L (Calbiochem 219402); purchased Calbiochem 219402; host or cells: human liver
T1 sequence (P07711 114-288 limits assumed): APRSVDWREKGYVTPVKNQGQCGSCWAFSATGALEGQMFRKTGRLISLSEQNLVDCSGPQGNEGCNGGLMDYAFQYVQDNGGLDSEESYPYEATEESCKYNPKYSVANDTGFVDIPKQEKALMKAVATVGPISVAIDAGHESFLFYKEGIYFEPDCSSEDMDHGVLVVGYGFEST
T1 sequence (P07711 292-333 limits assumed): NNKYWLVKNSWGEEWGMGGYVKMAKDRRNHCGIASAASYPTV
Procedure: Assay buffer consisted of 20 mM sodium acetate, 1 mM ethylenediaminetetraacetic acid (EDTA) and 5 mM cysteine, pH 5.5. Cathepsin L was incubated in assay buffer for 30 minutes prior to dispensing into wells to allow for efficient reduction of the active site cysteine required for full enzymatic activity.
Upon activation, cathepsin L (300 pM, 8.7 ng/mL) was incubated with 1 microM Z-Phe-Arg-AMC substrate (Sigma C9521) and test compound in […] of assay buffer for 1 hour at room temperature.
All reactions were performed in 20 mM sodium acetate buffer containing 5 mM cysteine and 1 mM EDTA, pH 5.5. Reaction progress was monitored using the Envision microplate reader. IC50 values were measured in triplicate.

Human liver cathepsin B = biological target: T2, Human liver cathepsin B (Homo sapiens, UniProt P07858); test: Cathepsin B assay, IC50 determination
T2 construct: Human liver cathepsin B (Calbiochem 219362, 65 ng/mL); purchased Calbiochem 219362; host or cells: human liver
Procedure: (§1) Human spleen cathepsin S (Calbiochem 219344, 40 ng/mL) was assayed using 15 microM Z-Phe-Arg-AMC substrate. Human liver cathepsin B (Calbiochem 219362, 65 ng/mL) was assayed using 15 microM Z-Arg-Arg-AMC substrate (Bachem I-1135). All reactions were performed in 20 mM sodium acetate buffer containing 1 mM EDTA and 5 mM cysteine, pH 5.5.
(§2) Compounds were serially diluted in DMSO and transferred into a 96-well Corning 3686 assay microplate to give a 16-point two-fold serial dilution dose response ranging from 25 microM to 760 pM. Human liver cathepsin L (Calbiochem 219402) was activated by incubating with assay buffer for 30 min. Upon activation, cathepsin L (300 pM, 8.7 ng/mL) was incubated with 1 microM Z-Phe-Arg-AMC substrate (Sigma C9521) and test compound in […] of assay buffer for 1 hour at room temperature. Fluorescence of AMC released by enzyme-catalyzed hydrolysis of Z-Phe-Arg-AMC was read on a PerkinElmer Envision microplate reader (excitation 355 nm, emission 460 nm). Data were scaled using internal controls and fitted to a four-parameter logistic model (IDBS XLfit equation 205) to obtain IC50 values in triplicate.
(§3) Compound No. 1 was assayed for inhibition against papain and cathepsins B, G, K, S, and V. Papain from Carica papaya (Calbiochem 5125, 11 ng/mL), human cathepsin K (Calbiochem 342001, 35 ng/mL), human spleen cathepsin S (Calbiochem 219344, 40 ng/mL), and human cathepsin V (Calbiochem 219467, 39 ng/ml) were assayed using Z-Phe-Arg-AMC substrate at 20 μM, 20 μM, 15 μM, and 1 μM, respectively. Human liver cathepsin B (Calbiochem 219362, 65 ng/mL) was assayed using 15 μM Z-Arg-Arg-AMC substrate (Bachem I-1135). Human neutrophil cathepsin G (Calbiochem 219373, 4.2 μg/mL) was assayed using 15 μM Suc-Ala-Ala-Pro-Phe-AMC substrate (Sigma S9761). All reactions were performed in 20 mM sodium acetate buffer containing 5 mM cysteine and 1 mM EDTA, pH 5.5. Reaction progress was monitored using the Envision microplate reader. IC50 values were measured in triplicate.

Human spleen cathepsin S = biological target: T3, Human spleen cathepsin S (Homo sapiens, UniProt P25774); test: Cathepsin S assay, IC50 determination
T3 construct: Human spleen cathepsin S (Calbiochem 219344, 40 ng/mL); purchased Calbiochem 219344; host or cells: human spleen
T3 sequence (P25774 115-331): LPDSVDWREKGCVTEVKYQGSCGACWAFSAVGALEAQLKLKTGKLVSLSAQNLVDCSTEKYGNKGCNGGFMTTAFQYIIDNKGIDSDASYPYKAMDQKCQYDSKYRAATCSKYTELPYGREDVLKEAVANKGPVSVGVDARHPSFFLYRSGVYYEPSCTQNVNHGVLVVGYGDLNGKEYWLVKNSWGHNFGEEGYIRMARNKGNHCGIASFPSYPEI
Procedure: as §1, §2, §3

Compound	IC50 (human liver cathepsin L; Table 1, read-out: IC50 Cat L) [µM]	IC50 (Human liver cathepsin B; Table 1, read-out: IC50 Cat B) [µM]	IC50 (Human spleen cathepsin S; Table 1, read-out: IC50 Cat S) [µM]	IC50 (human liver cathepsin L; Tables 2-11, read-out: Cat L) [µM]	IC50 (Human liver cathepsin B; Tables 2-11, read-out: Cat B) [µM]	IC50 (Human spleen cathepsin S; Tables 2-11, read-out: Cat S) [µM]
CC(C)(C)OC(=O)N[C@@H](COCc1ccccc1)CC(=O)NNC(=O)SCC(=O)N1CCCc2ccccc21 [Compound No. 83]	2.12	> 25	5.95			
CCOC(=O)c1cccc(NC(=O)CSC(=O)NNC(=O)[C@H](COCc2ccccc2)NC(=O)OC(C)(C)C)c1 [Compound No. 56]	0.43	> 25	1.64			
CCc1ccccc1NC(=O)CSC(=O)NNC(=O)C[C@@H](NC(=O)OC(C)(C)C)C(C)C [Compound No. 78]	7.52	11.5	> 25			
CC(C)(C)OC(=O)N[C@@H](Cc1ccc(OCc2ccccc2)cc1)C(=O)NNC(=O)SCC(=O)N1CCc2ccccc2C1 [Compound No. 39]	0.086	3.19	1.31			
CCc1ccccc1NC(=O)CSC(=O)NNC(=O)[C@H](Cc1ncc[nH]1)NC(=O)OC(C)(C)C [Compound No. 65]	> 25	13.7	> 25			
CCc1ccccc1NC(=O)CSC(=O)NNC(=O)[C@H](CCC(=O)O)NC(=O)OC(C)(C)C [Compound No. 27]	≥ 25	> 25	> 25			
CC(C)(C)OC(=O)N[C@@H](Cc1c[nH]c2ccccc12)C(=O)NNC(=O)SCC(=O)NCCc1ccccc1 [Compound No. 7]	0.029	6.59	0.32			
CC(C)[C@H](NC(=O)OC(C)(C)C)C(=O)NNC(=O)SCC(=O)Nc1ccc2c(c1)CCCC2 [Compound No. 24]	0.11	> 25	0.62			
COC(=O)CSC(=O)NNC(=O)[C@H](Cc1c[nH]c2ccccc12)NC(=O)OC(C)(C)C [Compound No. 15]	0.098	6.33	0.57			
CC(C)(C)OC(=O)N[C@@H](Cc1c[nH]c2ccccc12)C(=O)NNC(=O)[C@@H](Cc1c[nH]c2ccccc12)NC(=O)OC(C)(C)C [Compound No. 117]				≥ 25	≥ 25	≥ 25
CC(C)(C)OC(=O)N[C@@H](Cc1c[nH]c2ccccc12)C(=O)NOCC(=O)N1CCCc2ccccc21 [Compound No. 120]				≥ 25	≥ 25	≥ 25
CCc1ccccc1NC(=O)CSC(=O)NNC(=O)C[C@H](CCSC)NC(=O)OC(C)(C)C [Compound No. 76]	5.52	> 25	2.41			
CCc1ccccc1NC(=O)CSC(=O)NNC(=O)[C@@H](Cc1c[nH]c2ccccc12)NC(=O)OC(C)(C)C [Compound No. 16]	> 25	> 25	> 25			
CC(C)(C)OC(=O)N[C@H](Cc1c[nH]c2ccccc12)C(=O)NN [Compound No. 119]				≥ 25	≥ 25	≥ 25
CC(C)(C)OC(=O)N[C@@H](Cc1c[nH]c2ccccc12)C(=O)NNC(=O)SCC(=O)N1CCc2ccc(Br)cc2C1c1ccccc1 (stereo partly drawn) [Compound No. 13]	1.03	> 25	2.9			
CC(C)[C@H](NC(=O)OC(C)(C)C)C(=O)NNC(=O)SCC(=O)N1CCc2ccccc21 [Compound No. 23]	0.45	0.44	7.24			
CC(C)(C)OC(=O)N[C@@H](CCCCNC(=O)OCc1ccccc1)C(=O)NNC(=O)SCC(=O)N1CCCc2ccccc21 [Compound No. 57]	> 25	4.35	5.15			
CC(C)(C)OC(=O)N[C@H](COCc1ccccc1)CC(=O)NNC(=O)SCC(=O)N1CCCc2ccccc21 [Compound No. 85]	> 25	> 25	> 25			
CCOC(=O)c1cccc(NC(=O)CSC(=O)NNC(=O)[C@H](Cc2c[nH]c3ccccc23)NC(=O)OC(C)(C)C)c1 [Compound No. 8]	0.062	> 25	0.68			
CC(C)(C)OC(=O)N[C@@H](Cc1c[nH]c2ccccc12)C(=O)NN [Compound No. 118]				≥ 25	≥ 25	≥ 25
